The values that follow come from patent publication US12144834B2, “Methods and compositions for treating gastrointestinal and inflammatory disorders” (Xbiome Inc., priority 2018, dated 2024).

The test system of experiment [1] is BTH01. As to the kind of experiment: Phenotypic antibiotic susceptibility (MIC), research cell bank. It counts as cell-based, Bacteroides thetaiotaomicron. The note with it: for MIC: Bacteroides thetaiotaomicron, read-out: Determined MIC; for MIC Interpretation: against BTH01.
Experiment [2] relates to EHA01. As to the kind of experiment: Phenotypic antibiotic susceptibility (MIC, Etests), research cell bank. It counts as cell-based, Eubacterium hallii. The settings on record: for MIC: Anaerobutyricum hallii, read-out: Determined MIC; for MIC Interpretation: against EHA01.
Experiment [3] concerns RHO01. The description is as above. It counts as cell-based, Roseburia hominis. The note with it: for MIC: Roseburia hominis, read-out: Determined MIC; for MIC Interpretation: against RHO01.

In brackets after ≈: the same amount, converted by molar mass. Where two headings read alike, the source gives them in different places.

For the molecule `CC1(C)S[C@@H]2[C@H](NC(=O)[C@H](N)c3ccccc3)C(=O)N2[C@H]1C(=O)O` [Ampicillin], the MIC was 32 µg/mL (≈ 91.6 µM) in experiment [1] (against BTH01, agar dilution); 0.06 µg/mL (≈ 0.172 µM) in experiment [2] (against EHA01, Etests); ≤ 0.016 µg/mL in experiment [3] (against RHO01, Etests). Further, the results for the “MIC Interpretation” value in experiment [1], in experiment [2] and in experiment [3] were “R”, “S” and “S”, respectively.
As to `CO[C@@]1(NC(=O)C2SC(=C(C(N)=O)C(=O)O)S2)C(=O)N2C(C(=O)O)=C(CSc3nnnn3C)CS[C@@H]21` (some centres unmarked) [Cefotetan], in experiment [1] (against BTH01, agar dilution), the MIC was determined as 256 µg/mL (≈ 445 µM). Moreover, in experiment [1], the “MIC Interpretation” value is recorded as “R”.
With `CCC[C@@H]1C[C@@H](C(=O)N[C@@H]([C@H]2O[C@H](SC)[C@H](O)[C@@H](O)[C@H]2O)[C@H](C)Cl)N(C)C1` [Clindamycin], the MIC was > 32 µg/mL in experiment [1] (against BTH01, agar dilution); 0.03 µg/mL (≈ 0.0706 µM) in experiment [2] (against EHA01, Etests); ≤ 0.016 µg/mL in experiment [3] (against RHO01, Etests). Moreover, the “MIC Interpretation” value in experiment [1] is given as “R”; in experiment [2], “S”; in experiment [3] it was “S”.
In the case of `C[C@@H](O)[C@H]1C(=O)N2C(C(=O)O)=C(SCCN=CN)C[C@H]12` [Imipenem], the MIC in experiment [1] (against BTH01, agar dilution) came to 0.5 µg/mL (≈ 1.67 µM); in experiment [2] (against EHA01, Etests), 0.008 µg/mL (≈ 0.0267 µM); in experiment [3] (against RHO01, Etests) it was 0.12 µg/mL (≈ 0.401 µM). Also, the “MIC Interpretation” value in experiment [1], in experiment [2] and in experiment [3] was “S” throughout.
In the case of `Cc1ncc([N+](=O)[O-])n1CCO` [Metronidazole], the MIC in experiment [1] (against BTH01, agar dilution) worked out at 2 µg/mL (≈ 11.7 µM); in experiment [2] (against EHA01, Etests) it was 0.06 µg/mL (≈ 0.351 µM); in experiment [3] (against RHO01, Etests), 0.03 µg/mL (≈ 0.175 µM). Moreover, the “MIC Interpretation” value in experiment [1], in experiment [2] and in experiment [3] was “S” throughout.
Take `COc1c(N2C[C@@H]3CCCN[C@@H]3C2)c(F)cc2c(=O)c(C(=O)O)cn(C3CC3)c12` [Moxifloxacin]: the MIC was 2 µg/mL (≈ 4.98 µM) in experiment [1] (against BTH01, agar dilution); 2 µg/mL (≈ 4.98 µM) in experiment [2] (against EHA01, Etests); 32 µg/mL (≈ 79.7 µM) in experiment [3] (against RHO01, Etests). Moreover, the “MIC Interpretation” value is given as “S” in experiment [1], “S” in experiment [2] and “R” in experiment [3].
On to `CN[C@H](CC(C)C)C(=O)N[C@H]1C(=O)N[C@@H](CC(N)=O)C(=O)N[C@H]2C(=O)N[C@H]3C(=O)N[C@H](C(=O)N[C@H](C(=O)O)c4cc(O)cc(O)c4-c4cc3ccc4O)[C@H](O)c3ccc(c(Cl)c3)Oc3cc2cc(c3O[C@@H]2O[C@H](CO)[C@@H](O)[C@H](O)[C@H]2O[C@H]2C[C@](C)(N)[C@H](O)[C@H](C)O2)Oc2ccc(cc2Cl)[C@H]1O` [Vancomycin], for which the MIC was found to be 64 µg/mL (≈ 44.2 µM) in experiment [1], 0.12 µg/mL (≈ 0.0828 µM) in experiment [2] and 0.25 µg/mL (≈ 0.173 µM) in experiment [3].
